Test results reported in patent US9409952B2, “Peptide-compound cyclization method” (Chugai Seiyaku Kabushiki Kaisha, priority 2011, dated 2016).
Where two headings read alike, the source gives them in different places. Starred links: 1 amine or outer side, 2 acyl side, 3 side chain; linkers in the order of their positions; H or OH if unused. Positions of bridges follow the written chain, without caps; N, C: chain ends. Non-standard residues stand in square brackets, D forms with d. Residues, ends and D or L forms follow the SMILES beside them. *: point of attachment. Phe(4-(CH2)5CO) = O=C([C@H](Cc1ccc(CCCCCC(=O)[*:3])cc1)N[*:1])[*:2]; Phe(3-(CH2)4CO) = O=C([C@H](Cc1cccc(CCCCC(=O)[*:3])c1)N[*:1])[*:2]; NMeF = CN[C@@H](Cc1ccccc1)C(=O)O; NMeI = CC[C@H](C)[C@H](NC)C(=O)O; NMeL = CN[C@@H](CC(C)C)C(=O)O; Ala(CN) = N#CC[C@H](N)C(=O)O; NMeV = CN[C@H](C(=O)O)C(C)C; NMeA = CN[C@@H](C)C(=O)O; Piperidide = C1CCN(*)CC1; dNMeA = CN[C@H](C)C(=O)O; Aze = O=C(O)[C@@H]1CCN1; Sar = CNCC(=O)O; tBu = CC(C)(C)*

Test: Metabolic stability in human hepatic microsome
Format: in vitro ADME
Conditions: for microsomal CLint at 1 uM: microsomes
[1] = pH 7.4, human hepatic microsome, NADPH(+), read-out: CL NADPH(+)

Structure (SMILES): CC(C)C[C@@H]1NC(=O)C[C@@H](C(=O)N2CCCCC2)NC(=O)[C@H]([C@@H](C)O)NC(=O)[C@H](C(C)C)N(C)C(=O)CN(C)C(=O)[C@H](CC(C)C)N(C)C(=O)[C@H](Cc2ccccc2)NC(=O)[C@H](Cc2ccccc2)N(C)C(=O)[C@@H](C(C)C)NC(=O)[C@H](CC(C)C)N(C)C(=O)[C@H](C)N(C)C1=O [DP-615] (L[NMeA][NMeL][dV][NMeF]F[NMeL][Sar][NMeV]TD-Piperidide; lactam N-11)
- microsomal CLint at 1 uM [1]: 42 µL/min/mg

Structure (SMILES): CC[C@H](C)[C@@H]1NC(=O)[C@H](C)NC(=O)[C@H](CC(C)C)N(C)C(=O)[C@H](CC(C)C)NC(=O)[C@H](Cc2ccccc2)NC(=O)[C@H](C(C)C)NC(=O)[C@@H]2CCCN2C(=O)[C@H](CC(C)C)NC(=O)[C@H](Cc2ccccc2)N(C)C(=O)[C@H]([C@@H](C)O)NC(=O)CNC(=O)[C@H](C)NC(=O)C[C@@H](C(=O)N2CCCCC2)NC1=O [DP-20] (AGT[NMeF]LPVFL[NMeL]AID-Piperidide; lactam N-13)
- microsomal CLint at 1 uM (human, pH 7.4, CL NADPH(+)): 97 µL/min/mg

Structure (SMILES): CC(C)C[C@H]1C(=O)N[C@@H](COC(C)(C)C)C(=O)N[C@H](C(=O)N2CCCCC2)CC(=O)N(C)[C@@H](C)C(=O)N(C)[C@@H](C)C(=O)N(C)[C@@H](Cc2ccccc2)C(=O)N(C)[C@@H](CC(C)C)C(=O)N[C@@H]([C@@H](C)O)C(=O)N(C)CC(=O)N1C [Compound P-120, MeAla-MeAla-MePhe-MeLeu-Thr-MeGly-MeLeu-Ser(tBu)-Asp-piperidine] ([NMeA][NMeA][NMeF][NMeL]T[Sar][NMeL]S(tBu)D-Piperidide; lactam N-9)
- Hepatic microsome CLhint (Human) In the absence of NADPH: 5 ul/min/mg Protein

Structure (SMILES): CC[C@H](C)[C@@H]1NC(=O)[C@H](Cc2ccccc2)N(C)C(=O)[C@H](Cc2ccccc2)NC(=O)[C@H](C(C)C)N(C)C(=O)[C@H](CC(C)C)N(C)C(=O)[C@H](CC(C)C)NC(=O)[C@H](C)NC(=O)C[C@@H](C(=O)N2CCCCC2)NC(=O)[C@H]([C@@H](C)O)NC(=O)CNC(=O)[C@H](C)N(C)C1=O [DP-85] (AL[NMeL][NMeV]F[NMeF]I[NMeA]GTD-Piperidide; lactam N-11)
- microsomal CLint at 1 uM [1]: 58 µL/min/mg

Structure (SMILES): CC(C)C[C@@H]1NC(=O)[C@H](Cc2ccccc2)NC(=O)[C@H](CC(C)C)N(C)C(=O)[C@H](Cc2ccccc2)NC(=O)[C@@H](C)N(C)C(=O)C[C@@H](C(=O)N2CCCCC2)NC(=O)[C@H](Cc2ccccc2)N(C)C(=O)CNC(=O)[C@H]([C@@H](C)O)NC(=O)[C@H](CC(C)C)NC1=O [DP-486] ([dNMeA]F[NMeL]FLLTG[NMeF]D-Piperidide; lactam N-10)
- microsomal CLint at 1 uM [1]: 87 µL/min/mg

Structure (SMILES): C=C1CCC(=O)N(C)[C@@H](Cc2ccccc2)C(=O)N(C)CC(=O)N(C)[C@@H](CC(C)C)C(=O)N[C@@H]([C@@H](C)O)C(=O)N(C)[C@@H](C)C(=O)N(C)[C@@H](CC(C)C)C(=O)N(C)[C@@H]([C@@H](C)CC)C(=O)N[C@@H](COC(C)(C)C)C(=O)N[C@H](C(=O)N2CCCCC2)Cc2ccc1cc2 [DP-830]
- microsomal CLint at 1 uM [1]: 321 µL/min/mg

Structure (SMILES): CC[C@H](C)[C@@H]1NC(=O)[C@H](C)N(C)C(=O)[C@H](Cc2ccccc2)NC(=O)[C@H](Cc2ccccc2)NC(=O)[C@H](CC(C)C)NC(=O)[C@H](C(C)C)N(C)C(=O)[C@H](CC(C)C)NC(=O)[C@H](C)NC(=O)[C@H](C)NC(=O)C[C@@H](C(=O)N2CCCCC2)NC(=O)CNC(=O)[C@H]([C@@H](C)O)NC1=O [DP-84] (AAL[NMeV]LFF[NMeA]ITGD-Piperidide; lactam N-12)
- microsomal CLint at 1 uM [1]: 21 µL/min/mg

Structure (SMILES): C=C1CCC(=O)N[C@@H](C(C)C)C(=O)N(C)[C@@H](CC(C)C)C(=O)N(C)CC(=O)N(C)[C@@H](CC(C)C)C(=O)N(C)[C@@H]([C@@H](C)CC)C(=O)N[C@@H](C)C(=O)N(C)[C@@H](Cc2ccccc2)C(=O)N(C)[C@@H](Cc2ccccc2)C(=O)N[C@@H]([C@@H](C)O)C(=O)N(C)[C@@H](CC(C)C)C(=O)N2CCC[C@H]2C(=O)N[C@H](C(=O)N2CCCCC2)Cc2cccc1c2 [DP-899]
- microsomal CLint at 1 uM [1]: 32 µL/min/mg

Structure (SMILES): CC[C@H](C)[C@H]1C(=O)N[C@@H]([C@@H](C)O)C(=O)N(C)CC(=O)N(C)[C@@H](CC(C)C)C(=O)N[C@H](C(=O)N2CCCCC2)Cc2cccc(c2)CCCCC(=O)N[C@@H](CC(C)C)C(=O)N(C)[C@@H](CC(C)C)C(=O)N(C)[C@@H](Cc2ccccc2)C(=O)N[C@@H](C)C(=O)N(C)[C@@H](Cc2ccccc2)C(=O)N1C [DP-857] (L[NMeL][NMeF]A[NMeF][NMeI]T[Sar][NMeL][Phe(3-(CH2)4CO)]-Piperidide; lactam N-10)
- microsomal CLint at 1 uM [1]: 284 µL/min/mg

Structure (SMILES): CC[C@H](C)[C@@H]1NC(=O)[C@H](CC(C)C)N(C)C(=O)CNC(=O)[C@H](C)NC(=O)C[C@@H](C(=O)N2CCCCC2)NC(=O)[C@@H]2CCCN2C(=O)[C@H](CC(C)C)NC(=O)[C@H](Cc2ccccc2)NC(=O)[C@H]([C@@H](C)O)NC(=O)[C@H](Cc2ccccc2)N(C)C(=O)[C@H](C)N(C)C1=O [DP-30] (AG[NMeL]I[NMeA][NMeF]TFLPD-Piperidide; lactam N-11)
- microsomal CLint at 1 uM (human, pH 7.4, CL NADPH(+)): 63 µL/min/mg

Structure (SMILES): CC(C)C[C@@H]1NC(=O)[C@H](CC(C)C)N(C)C(=O)[C@H](C)N(C)C(=O)[C@@H](C(C)C)NC(=O)C[C@@H](C(=O)N2CCCCC2)NC(=O)[C@H]([C@@H](C)O)NC(=O)[C@H](C)N(C)C(=O)CN(C)C(=O)[C@H](CC(C)C)N(C)C(=O)[C@H](Cc2c[nH]c3ccccc23)NC(=O)[C@H](Cc2ccccc2)N(C)C1=O [DP-622] ([dV][NMeA][NMeL]L[NMeF]W[NMeL][Sar][NMeA]TD-Piperidide; lactam N-11)
- microsomal CLint at 1 uM [1]: 36 µL/min/mg

Structure (SMILES): CC(C)C[C@H]1C(=O)N(C)[C@@H](CC(C)C)C(=O)N[C@@H](C)C(=O)N(C)[C@@H](CC(C)C)C(=O)N(C)[C@@H](Cc2ccccc2)C(=O)N(C)[C@@H](Cc2ccccc2)C(=O)N[C@@H]([C@@H](C)O)C(=O)N(C)[C@@H](C)C(=O)N(C)[C@@H](CC(C)C)C(=O)N[C@H](C(=O)N2CCCCC2)Cc2cccc(c2)CCCCC(=O)N1C [DP-859] ([NMeL][NMeL]A[NMeL][NMeF][NMeF]T[NMeA][NMeL][Phe(3-(CH2)4CO)]-Piperidide; lactam N-10)
- microsomal CLint at 1 uM [1]: 87 µL/min/mg

Structure (SMILES): CC(C)C[C@H]1C(=O)N(C)CC(=O)N(C)[C@@H](C)C(=O)N[C@@H]([C@@H](C)O)C(=O)N[C@H](C(=O)N2CCCCC2)CC(=O)N[C@H](C(C)C)C(=O)N(C)[C@@H](C)C(=O)N(C)[C@@H](CC(C)C)C(=O)N[C@@H](CC#N)C(=O)N(C)[C@@H](Cc2ccccc2)C(=O)N[C@@H](Cc2ccccc2)C(=O)N1C [DP-629] ([dV][NMeA][NMeL][Ala(CN)][NMeF]F[NMeL][Sar][NMeA]TD-Piperidide; lactam N-11)
- microsomal CLint at 1 uM [1]: 16 µL/min/mg

Structure (SMILES): CC[C@H](C)[C@H]1C(=O)N[C@@H](C)C(=O)N[C@H](C(=O)N2CCCCC2)CC(=O)N[C@@H](C)C(=O)N[C@@H]([C@@H](C)O)C(=O)N(C)[C@@H](CC(C)C)C(=O)N[C@@H](CC(C)C)C(=O)N[C@@H](Cc2ccccc2)C(=O)N2CCC[C@H]2C(=O)N[C@@H](Cc2ccccc2)C(=O)N[C@@H](C(C)C)C(=O)N(C)CC(=O)N1C [DP-6] (AT[NMeL]LFPFV[Sar][NMeI]AD-Piperidide; lactam N-12)
- microsomal CLint at 1 uM (human, pH 7.4, CL NADPH(+)): 35 µL/min/mg

Structure (SMILES): CC[C@H](C)[C@H]1C(=O)NCC(=O)N2CC[C@H]2C(=O)N[C@@H]([C@@H](C)O)C(=O)N2CCC[C@H]2C(=O)N[C@@H](Cc2ccccc2)C(=O)N[C@H](C(=O)N2CCCCC2)CC(=O)N(C)[C@@H](C)C(=O)N[C@@H](Cc2ccccc2)C(=O)N(C)[C@@H](CC(C)C)C(=O)N[C@@H](CC(C)C)C(=O)N1C [DP-556] ([NMeA]F[NMeL]L[NMeI]G[Aze]TPFD-Piperidide; lactam N-11)
- microsomal CLint at 1 uM [1]: 65 µL/min/mg

Structure (SMILES): CC(C)C[C@@H]1NC(=O)[C@H](CC(C)C)N(C)C(=O)[C@H](Cc2ccccc2)NC(=O)[C@H](C)N(C)C(=O)C[C@@H](C(=O)N2CCCCC2)NC(=O)[C@H](Cc2ccccc2)NC(=O)[C@@H]2CCCN2C(=O)[C@H]([C@@H](C)O)NC(=O)[C@H](CC(C)C)N(C)C(=O)CNC(=O)[C@@H]2CCN2C1=O [DP-554] ([NMeA]F[NMeL]L[Aze]G[NMeL]TPFD-Piperidide; lactam N-11)
- microsomal CLint at 1 uM [1]: 80 µL/min/mg

Structure (SMILES): C=C1CCC(=O)N[C@@H](C(C)C)C(=O)N(C)[C@@H](C)C(=O)N(C)[C@@H](CC(C)C)C(=O)N[C@@H](CC(C)C)C(=O)N[C@@H](Cc2ccccc2)C(=O)N(C)[C@@H](Cc2ccccc2)C(=O)N[C@@H]([C@@H](C)CC)C(=O)N2CCC[C@H]2C(=O)N[C@@H]([C@@H](C)O)C(=O)N(C)[C@@H](CC(C)C)C(=O)N[C@H](C(=O)N2CCCCC2)Cc2cccc1c2 [DP-884]
- microsomal CLint at 1 uM [1]: 64 µL/min/mg

Structure (SMILES): CC[C@H](C)[C@@H]1NC(=O)[C@H](Cc2ccccc2)N(C)C(=O)[C@H](Cc2ccccc2)NC(=O)[C@H](CC(C)C)N(C)C(=O)[C@H](C(C)C)NC(=O)[C@H](CC(C)C)NC(=O)[C@H](C)N(C)C(=O)CNC(=O)CCCCCc2ccc(cc2)C[C@@H](C(=O)N2CCCCC2)NC(=O)[C@H]([C@@H](C)O)NC(=O)[C@H](CC(C)C)NC(=O)[C@H](C)N(C)C1=O [DP-891] (G[NMeA]LV[NMeL]F[NMeF]I[NMeA]LT[Phe(4-(CH2)5CO)]-Piperidide; lactam N-12)
- microsomal CLint at 1 uM [1]: 100 µL/min/mg

Structure (SMILES): C=C1CCC(=O)N[C@@H](CC(C)C)C(=O)N2CCC[C@H]2C(=O)N[C@@H]([C@@H](C)O)C(=O)N(C)CC(=O)N[C@@H](Cc2ccccc2)C(=O)N(C)[C@@H](C(C)C)C(=O)N(C)[C@@H](C)C(=O)N[C@@H](CC(C)C)C(=O)N(C)[C@@H](CC(C)C)C(=O)N[C@H](C(=O)N2CCCCC2)Cc2cccc1c2 [DP-866]
- microsomal CLint at 1 uM [1]: 211 µL/min/mg

Structure (SMILES): CC(C)C[C@H]1C(=O)N(C)CC(=O)N(C)[C@@H](C)C(=O)N[C@@H]([C@@H](C)O)C(=O)N[C@H](C(=O)N2CCCCC2)CC(=O)N[C@H](C(C)C)C(=O)N(C)[C@@H](C)C(=O)N(C)[C@@H](CC(C)C)C(=O)N[C@@H](Cc2c[nH]c3ccccc23)C(=O)N(C)[C@@H](Cc2ccccc2)C(=O)N[C@@H](Cc2ccccc2)C(=O)N1C [DP-623] ([dV][NMeA][NMeL]W[NMeF]F[NMeL][Sar][NMeA]TD-Piperidide; lactam N-11)
- microsomal CLint at 1 uM [1]: 16 µL/min/mg

Structure (SMILES): CC[C@H](C)[C@@H]1NC(=O)[C@H](Cc2ccccc2)N(C)C(=O)[C@H](Cc2ccccc2)N(C)C(=O)[C@H](CC(C)C)N(C)C(=O)[C@H](CC(C)C)NC(=O)[C@H](CC(C)C)N(C)C(=O)[C@H](C)N(C)C(=O)[C@H]([C@@H](C)O)NC(=O)[C@H](C)NC(=O)C[C@@H](C(=O)N2CCCCC2)NC(=O)[C@H](C(C)C)N(C)C(=O)[C@@H]2CCCN2C1=O [DP-12] (AT[NMeA][NMeL]L[NMeL][NMeF][NMeF]IP[NMeV]D-Piperidide; lactam N-12)
- microsomal CLint at 1 uM (human, pH 7.4, CL NADPH(+)): 32 µL/min/mg
